Test results from publication PMC9088311, “Cyclic Thiosulfonates for Thiol-Mediated Uptake: Cascade Exchangers, Transporters, Inhibitors” (JACS Au, 2022).
Converted amounts (≈) assume the structure as drawn. Read-outs that look alike come from different tables or passages of the source.

Legend:
[1] = test system: A549 human lung alveolar basal epithelium cells overexpressing ACE2 and TMPRSS2; settings: inhibitor 5 μM
HeLa Kyoto cells [2] = experiment: Relative viability (HOE/PI) in HCHT screening
Description: One advantage of HCHT imaging of cellular uptake compared to flow cytometry[38],[42],[43] is that it simultaneously gives information on toxicity and intracellular localization. […] Information on the intracellular localization of reporters can be quantified through segmentation of cellular compartments stained with specific markers.[52]
(§1) Uptake inhibition was measured by the automated HCHT imaging used already to elaborate on cytosolic delivery. For inhibitor screening, HK cells in multiwell plates were incubated with increasing concentrations of inhibitors, followed by fluorescent transporters 28, 31, and 32 at a constant concentration. […] If inhibitors are removed before the addition of transporters 28, 31, and 32, the method is referred to as “pre-incubation”. This is of interest to minimize exchange between the transporter and the inhibitor but is often problematic because dynamic covalent exchange between the inhibitor and cellular target can also be reversed and thus lost. The complementary “co-incubation” operates without inhibitor removal before the addition of transporters 28, 31, and 32.
Relative cell viability ( RV) for each condition in the presence of inhibitors was calculated […]
of the relative cell viability ( RVrel) to the concentration of inhibitors ( cinhibitor ) was plotted and fitted with Equation (S19) to retrieve the concentration causing 50% cell growth inhibition (RV50) value and the Hill coefficient ( n).

HK cells, transporter 31 [3] = experiment: HCHT imaging: inhibition of cytosolic delivery of ETP transporter 31; format: cell-based, Human; settings: inhibitor 1 h; for IC15: read-out: MIC (concentration needed to reach 15% inhibition), transporter 31 10 μM
Description: as §1
(§2) 536/40 nm emission filter, and red with 531/40 nm excitation filter and 593/40 nm emission […]
(§3) 4.3. HCHT Inhibitor Screening
(§4) Pre-Incubation Method. As in ref. S1. HeLa Kyoto cells were seeded at 8 ×10^4 cells/mL in FluoroBrite DMEM + 10% FBS on μ-Plate 96-well Black ibiTreat sterile and incubated at 37 °C with 5% CO 2 for 24 h. Then, the medium was removed and cells were washed with PBS ([…]), fresh FluoroBrite DMEM medium (4 × 150 μL/well) was added into the cells using a plate washer (Biotek EL406®), keeping a final volume of 135 μL/well. Different concentrations of the inhibitors were prepared by serial dilution with 10% final concentration DMSO (10× in PBS). The solution of compounds 4 and 33 was prepared final DMSO concentration of 10% in each dilution (10× in PBS). These inhibitor solutions (10× final concentration), transporter 28 (10× in DMEM), transporters 31 and 32 (10× in PBS) a solution of HOE (100 μg/mL) and PI (10 μg/mL) in PBS were prepared freshly in a 96-well V-bottom plate before adding to the cells. The inhibitor solutions from the V-bottom plate were added to the cells (15 μL/well) in a final volume of 150 μL/well using an electronic multichannel pipette and cells were incubated for 1 h at 37 °C with 5% CO 2. After this incubation, cells were washed again with PBS and DMEM using the plate washer (in the way mentioned above), and transporter 28 , 31 or 32 from the V-bottom plate was added (15 μL/well) to the cells in a final volume of 150 μL/well. A final concentration of each transporter 28 , 31 and 32 was 5 μM, 10 μM and 0.5 μM, respectively, except for the control wells, where only PBS was added (15 μL/well). Cells treated with transporter 28 or 31 were incubated for 30 min, and cells treated with 32 were incubated for 2 h at 37 °C with 5% CO 2. After that, the cells were washed with PBS and DMEM using the plate washer, and the solution of Hoechst 33342 and PI from the V-bottom plate was added (15 μL/well) to the cells in a final volume of 150 μL/well. After 15 min of incubation at 37 °C with 5% CO 2, the cells were washed and kept in clean FluoroBrite
(§5) DMEM. For live cell imaging, samples were kept at 37 °C with 5% CO 2 during the microscope imaging. The distribution of fluorescence stained cells was analyzed without fixing using an […]

HeLa Kyoto (HK) cells = experiment: Cellular uptake of fluorescent transporters (HCHT imaging, SDCM); format: cell-based, Human; settings: 10, 20, 50 μM transporter
Description: Cellular uptake was measured by automated high-content high-throughput (HCHT) imaging.[51] This method provides access to biologically meaningful and statistically relevant data from thousands of cells within a very short time. For the uptake monitoring, HeLa Kyoto (HK) cells in multiwell plates were incubated with the fluorescent transporters 28–30 for 1 h, washed, and imaged by spinning disk confocal microscopy (SDCM) to quantify the fluorescent transporters that have entered the cells. […] The better activity of CTOs 28 compared to 29 was consistent with the concept of hydrophobic directing groups, expected to guide CTOs into an aprotic environment within membranes or proteins to activate the sulfinate exchanger and thus turn on dynamic covalent exchange cascades with cellular partners (Figure 2D). The passive diffusion of transporter 28 across the membrane is conceivable but unlikely because this process can be inhibited by other CAXs (see the next section).
4. High-Content High-Throughput (HCHT) Inhibitor Screening […]
The distribution of fluorescence stained cells was analyzed without fixing using an IXM-C automated microscope. 4 images per well were recorded using 10× objective lens, and fluorescent images were acquired with three channels, blue with 377/50 nm excitation filter and 477/60 nm emission filter, green for FITC transporter with 475/34 nm excitation filter and […]

HK cells, transporter 28 = experiment: HCHT imaging: inhibition of cytosolic delivery of CTO transporter 28; format: cell-based, Human; set-up: key to inhibition of CTO 28 uptake (heatmap): –: −: inactive; ++: qualitative inhibition of SC2 uptake; settings: for IC50 / IC15: Homo sapiens; for IC50: read-out: IC50 (concentration needed to reach 50% inhibition), transporter 28 5 μM; for IC50 / IC15 / MIC (concentration needed to reach 15% inhibition): inhibitor 1 h
Description: as §1, §2, §3, §4, §5

cathepsin B = cathepsin B (Homo sapiens, UniProt P07858); experiment: Cathepsin B inhibition (preliminary, not shown); format: biochemical; settings: 50 μM; preliminary results
trypsin = experiment: Trypsin inhibition (preliminary, not shown); format: biochemical; settings: 50 μM; preliminary results
cathepsin L = cathepsin L (Homo sapiens, UniProt P07711); experiment: Cathepsin L inhibition (preliminary, not shown); format: biochemical; settings: 50 μM; preliminary results
cathepsin L, sequence (P07711 114-333, species assumed): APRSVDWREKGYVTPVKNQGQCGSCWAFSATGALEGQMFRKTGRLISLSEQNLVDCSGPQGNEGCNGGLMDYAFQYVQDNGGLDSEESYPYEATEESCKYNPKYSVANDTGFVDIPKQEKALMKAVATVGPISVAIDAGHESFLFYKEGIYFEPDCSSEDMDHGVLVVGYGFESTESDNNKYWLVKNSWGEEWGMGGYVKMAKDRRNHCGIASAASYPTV

in vitro = settings: human
HK cells, transporter 31 [4] = settings: transporter 31 10 μM, pre-incubation (P), cited from earlier work; for IC50: read-out: IC50 (concentration needed to reach 50% inhibition)
HeLa Kyoto cells [5] = settings: with transporter 31; pre-incubation (P); cited from earlier work
HK cells, transporter 32 = test system: HK cells, transporter 32; set-up: method as in PMID 34173696; settings: transporter 32 0.5 or 1 μM, pre-incubation (P), cited from earlier work; for IC50: read-out: IC50 (concentration needed to reach 50% inhibition)
[6] = with transporter 31, co-incubation (C)
[7] = 1 h, read-out: MIC (concentration needed to reach 15% inhibition), transporter 28 5 μM, co-incubation (C)
[8] = transporter 28 5 μM, co-incubation (C)
[9] = with transporter 28, co-incubation (C)
[10] = Homo sapiens, 1 h, read-out: IC50 (concentration needed to reach 50% inhibition), transporter 31 10 μM, co-incubation (C)
[11] = Homo sapiens, 1 h, co-incubation (C)
[12] = transporter 28 5 μM, pre-incubation (P)
[13] = with transporter 28, pre-incubation (P)

With `CC(C)(C)OC(=O)NCCNC(=O)O[C@H]1CSS(=O)(=O)C[C@H]1O[Si](C)(C)C(C)(C)C` (racemic) [Compound 50] the “RV, relative cell viability” value [1] was 110 ± 10%, the “RV50 (concentration needed to lower relative viability by 50%)” value (HeLa Kyoto cells [2]; [6]) was “≈ 20 μM” and the IC50 (HK cells, transporter 31 [3]; read-out: IC50 (concentration needed to reach 50% inhibition), transporter 31 10 μM, co-incubation (C)) was 20 ± 3 µM. For the same compound, the “MIC (concentration needed to reach 15% inhibition)” value (HK cells, transporter 31 [3]; transporter 31 10 μM, co-incubation (C)) was 5.6 µM.

With `CC(C)(C)[Si](C)(C)O[C@H]1CS(=O)(=O)SC[C@@H]1OCC(=O)NCCNC(=S)Nc1ccc(-c2c3ccc(=O)cc-3oc3cc(O)ccc23)c(C(=O)O)c1` [Compound 28] the “cellular uptake, fluorescence intensity of HK cells (in words)” value (HeLa Kyoto (HK) cells) was “more active than the AspA 30 standard”.

For `O=C(CO[C@H]1CSS(=O)(=O)C[C@@H]1O)NCCNC(=S)Nc1ccc(-c2c3ccc(=O)cc-3oc3cc(O)ccc23)c(C(=O)O)c1` [Compound 29], the “cellular uptake, fluorescence intensity of HK cells (in words)” value (HeLa Kyoto (HK) cells) was “more active than the AspA 30 standard”.

For `CC(C)(C)OC(=O)NCCNC(=O)O[C@H]1CSS(=O)(=O)C[C@H]1O` [Compound 34], the IC50 (HK cells, transporter 28; 1 h, co-incubation (C)) was 26 µM, the IC15 (HK cells, transporter 28; [7]) was 1.2 µM and the “MIC (concentration needed to reach 15% inhibition)” value (HK cells, transporter 28; [8]) was 1 µM. The “inhibition of cathepsin B (in words)” value (cathepsin B) was “inhibit only cathepsin B”, the “inhibition of trypsin (in words)” value (trypsin) was “inhibit only cathepsin B” and the “inhibition of cathepsin L (in words)” value (cathepsin L) was “inhibit only cathepsin B”. The “RV50 (concentration needed to lower relative viability by 50%)” value (HeLa Kyoto cells [2]; [9]) was greater than 50 µM, the “RV50 (concentration needed to lower relative viability by 50%)” value (HeLa Kyoto cells [2]; [6]) was greater than 100 µM and the “RV50 (concentration needed to lower relative viability by 50%)” value (HeLa Kyoto cells [2]; with transporter 31, pre-incubation (P)) was greater than 100 µM. For the same compound, the viability at 7 h, 50 µM (in vitro) was 76%, the IC50 (HK cells, transporter 31 [3]; [10]) was greater than 100 µM and the IC15 (HK cells, transporter 31 [3]; [11]) was 16 µM. The IC15 (HK cells, transporter 31 [3]; Homo sapiens, 1 h, pre-incubation (P)) was 3 µM, the IC50 (HK cells, transporter 31 [3]; Homo sapiens, read-out: IC50 (concentration needed to reach 50% inhibition), transporter 31 10 μM, pre-incubation (P)) was greater than 100 µM and the “MIC (concentration needed to reach 15% inhibition)” value (HK cells, transporter 31 [3]; transporter 31 10 μM, pre-incubation (P)) was 3 µM (≈ 1.11 µg/mL).

With `O=C(N[C@H]1CCS(=O)(=O)SC1)N[C@H]1CCS(=O)(=O)SC1` [Compound 35] the IC50 (HK cells, transporter 28; 1 h, co-incubation (C)) was 25 µM, the IC15 (HK cells, transporter 28; [7]) was 3.5 µM and the “MIC (concentration needed to reach 15% inhibition)” value (HK cells, transporter 28; [8]) was 4 µM. The “inhibition of cathepsin B (in words)” value (cathepsin B) was “inhibit only cathepsin B”, the “inhibition of trypsin (in words)” value (trypsin) was “inhibit only cathepsin B” and the “inhibition of cathepsin L (in words)” value (cathepsin L) was “inhibit only cathepsin B”. The “RV50 (concentration needed to lower relative viability by 50%)” value (HeLa Kyoto cells [2]; [9]) was greater than 50 µM, the “RV50 (concentration needed to lower relative viability by 50%)” value (HeLa Kyoto cells [2]; [6]) was greater than 100 µM and the viability at 7 h, 50 µM (in vitro) was 96%. It also gave an IC50 (HK cells, transporter 31 [3]; [10]) of 51 µM and an IC15 (HK cells, transporter 31 [3]; [11]) of 9 µM.

In the case of `CCN1C(=O)C2SSSSC1C(=O)N2CC(=O)O` (centres unmarked) [Compound 47, reference compound], the IC50 (HK cells, transporter 31 [4]) is listed as 1.3 µM, the IC50 (HK cells, transporter 28; pre-incubation (P)) is listed as greater than 10 µM and the IC15 (HK cells, transporter 28; read-out: MIC (concentration needed to reach 15% inhibition), transporter 28 5 μM, pre-incubation (P)) is listed as greater than 10 µM. For the same compound, the “inhibition of CTO 28 uptake (heatmap)” value (HK cells, transporter 28; pre-incubation conditions) was “–”, the “MIC (concentration needed to reach 15% inhibition)” value (HK cells, transporter 28; [12]) was greater than 10 µM and the “RV50 (concentration needed to lower relative viability by 50%)” value (HeLa Kyoto cells [5]) was 35 µM. For the same compound, the “RV50 (concentration needed to lower relative viability by 50%)” value (HeLa Kyoto cells [2]; [13]) was greater than 10 µM, the IC50 (HK cells, transporter 32) was 50 µM and the “MIC (concentration needed to reach 15% inhibition)” value (HK cells, transporter 32) was 2 µM (≈ 0.653 µg/mL). It also gave a viability at 7 h, 50 µM (in vitro) of 70%.

In the case of `CC(=O)/C=C1/C(=O)N(C)c2ccccc21` [Compound 48, super-cinnamaldehyde, reference compound], the IC50 (HK cells, transporter 31 [4]) is listed as 4 µM, the “MIC (concentration needed to reach 15% inhibition)” value (HK cells, transporter 31 [4]) is listed as less than 1 µM and the “RV50 (concentration needed to lower relative viability by 50%)” value (HeLa Kyoto cells [5]) is listed as greater than 20 µM. It also gave a viability at 7 h, 5 µM (in vitro) of 94%.

For `CC#CI1OC(=O)c2ccccc21` [Compound 49, reference compound], the IC50 (HK cells, transporter 31 [4]) is listed as 40 µM, the “MIC (concentration needed to reach 15% inhibition)” value (HK cells, transporter 31 [4]) is listed as 4 µM (≈ 1.14 µg/mL) and the IC15 (HK cells, transporter 28; 1 h, read-out: MIC (concentration needed to reach 15% inhibition), transporter 28 5 μM, pre-incubation (P)) is listed as 8.7 µM. For the same compound, the IC50 (HK cells, transporter 28; pre-incubation (P)) was 53 µM, the “MIC (concentration needed to reach 15% inhibition)” value (HK cells, transporter 28; [12]) was 9 µM (≈ 2.57 µg/mL) and the “RV50 (concentration needed to lower relative viability by 50%)” value (HeLa Kyoto cells [5]) was 60 µM. For the same compound, the “RV50 (concentration needed to lower relative viability by 50%)” value (HeLa Kyoto cells [2]; [13]) was greater than 50 µM, the IC50 (HK cells, transporter 32) was 10 µM and the “MIC (concentration needed to reach 15% inhibition)” value (HK cells, transporter 32) was 0.3 µM (≈ 0.0858 µg/mL). For the same compound, the viability at 7 h, 5 µM (in vitro) was 92%.
